# Data taken from US20100105655A1, “NOVEL COMPOUNDS 515” (ASTRAZENECA AB, priority 2008, published 2010).
# pIC50: −log10 of the molar value.
# Biological target: T1, IGFR kinase (Homo sapiens, UniProt P08069)
# T1 construct: purchased Millipore
# Experiment: Enzyme assay (c), IGFR kinase, Caliper LabChip
# Assay type: biochemical
# Conditions: 30 nM IGFR kinase, 6 uM ATP, 3 uM peptide mix; read-out: IGFR IC50
# T1 sequence (P08069 31-1367): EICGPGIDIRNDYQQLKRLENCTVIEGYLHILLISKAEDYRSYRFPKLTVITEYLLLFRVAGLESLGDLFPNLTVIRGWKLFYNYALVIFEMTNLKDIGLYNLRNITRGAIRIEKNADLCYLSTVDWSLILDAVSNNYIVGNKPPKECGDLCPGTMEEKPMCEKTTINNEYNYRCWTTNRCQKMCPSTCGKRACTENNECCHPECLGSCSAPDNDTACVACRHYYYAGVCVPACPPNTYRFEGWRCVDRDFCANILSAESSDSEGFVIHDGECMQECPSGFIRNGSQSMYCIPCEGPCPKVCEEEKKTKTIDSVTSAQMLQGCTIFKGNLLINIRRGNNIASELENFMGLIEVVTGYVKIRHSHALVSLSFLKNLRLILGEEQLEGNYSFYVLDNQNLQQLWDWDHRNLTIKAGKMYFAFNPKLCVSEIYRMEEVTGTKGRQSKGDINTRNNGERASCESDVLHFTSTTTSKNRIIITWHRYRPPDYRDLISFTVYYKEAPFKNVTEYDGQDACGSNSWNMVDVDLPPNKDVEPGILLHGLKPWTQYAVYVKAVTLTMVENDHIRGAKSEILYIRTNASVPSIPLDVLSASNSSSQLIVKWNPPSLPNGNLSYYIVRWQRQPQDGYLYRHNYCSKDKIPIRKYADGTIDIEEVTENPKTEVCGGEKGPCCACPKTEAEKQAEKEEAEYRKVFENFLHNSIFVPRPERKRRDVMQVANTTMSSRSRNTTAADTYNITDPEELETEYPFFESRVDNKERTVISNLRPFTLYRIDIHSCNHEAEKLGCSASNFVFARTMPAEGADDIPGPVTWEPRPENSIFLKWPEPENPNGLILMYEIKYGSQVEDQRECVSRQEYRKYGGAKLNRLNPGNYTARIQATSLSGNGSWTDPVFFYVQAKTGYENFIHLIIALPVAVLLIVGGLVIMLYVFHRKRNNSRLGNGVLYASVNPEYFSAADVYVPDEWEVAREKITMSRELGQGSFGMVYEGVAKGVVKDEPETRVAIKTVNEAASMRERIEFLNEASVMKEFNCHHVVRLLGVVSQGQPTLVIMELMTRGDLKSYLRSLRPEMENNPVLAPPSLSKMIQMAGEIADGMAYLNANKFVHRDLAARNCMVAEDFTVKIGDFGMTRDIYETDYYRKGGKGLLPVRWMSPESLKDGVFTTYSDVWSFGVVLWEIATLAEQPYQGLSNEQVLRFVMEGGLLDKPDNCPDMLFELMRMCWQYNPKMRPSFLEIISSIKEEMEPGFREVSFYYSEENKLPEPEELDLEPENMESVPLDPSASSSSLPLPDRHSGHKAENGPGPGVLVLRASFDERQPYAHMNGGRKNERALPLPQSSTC
row,SMILES,pIC50
1,"COc1cc(C(C)C(=O)N2CCNCC2)ccc1Nc1ncc(Cl)c(-c2cnc3ccccn23)n1 (stereo not shown) [Example 3.42, 2-[4-[(5-chloro-4-imidazo[1,2-a]pyridin-3-yl-pyrimidin-2-yl)amino]-3-methoxy-phenyl]-1-piperazin-1-yl-propan-1-one]",7.60
2,"COc1ccc(N2CCNCC2)cc1Nc1ncc(Cl)c(-c2cnn3ccccc23)n1 [Example 147, 5-chloro-N-(2-methoxy-5-piperazin-1-yl-phenyl)-4-pyrazolo[1,5-a]pyridin-3-yl-pyrimidin-2-amine]",7.85
3,"COc1cc(CN2CCCOCC2)ccc1Nc1ncc(Cl)c(-c2cnc3ccccn23)n1 [Example 21.14, 5-chloro-4-imidazo[1,2-a]pyridin-3-yl-N-[2-methoxy-4-(1,4-oxazepan-4-ylmethyl)phenyl]pyrimidin-2-amine]",7.55
4,"COc1cc(N2CCN(C(=O)CO)CC2)ccc1Nc1ncc(Cl)c(-c2cnc3c(F)cccn23)n1 [Example 180, 1-[4-[4-[[5-chloro-4-(8-fluoroimidazo[1,2-a]pyridin-3-yl)pyrimidin-2-yl]amino]-3-methoxy-phenyl]piperazin-1-yl]-2-hydroxy-ethanone]",7.60
5,"COc1cc(N2CCN(C(=O)[C@@H](O)CO)CC2)ccc1Nc1ncc(Cl)c(-c2cnc3ccccn23)n1 [Example 56, (2S)-1-[4-[4-[(5-chloro-4-imidazo[1,2-a]pyridin-3-yl-pyrimidin-2-yl)amino]-3-methoxy-phenyl]piperazin-1-yl]-2,3-dihydroxy-propan-1-one]",8.22
6,"CCN1CCN(c2ccc(Nc3ncc(F)c(-c4cnc5ccccn45)n3)c(OC)c2)CC1 [Example 120, N-[4-(4-ethylpiperazin-1-yl)-2-methoxyphenyl]-5-fluoro-4-imidazo[1,2-a]pyridin-3-ylpyrimidin-2-amine]",6.89
7,"COc1cc(N2CCN(C(=O)[C@@H]3CCCCN3)CC2)ccc1Nc1ncc(Cl)c(-c2cnc3ccccn23)n1 [Example 24.2, [4-[4-[(5-chloro-4-imidazo[1,2-a]pyridin-3-yl-pyrimidin-2-yl)amino]-3-methoxy-phenyl]piperazin-1-yl]-[(2S)-2-piperidyl]methanone]",8.22
8,"COc1cc(CN2CCN(CCO)CC2)ccc1Nc1ncc(Cl)c(-c2cnc3ccccn23)n1 [Example 21.8, 2-[4-[[4-[(5-chloro-4-imidazo[1,2-a]pyridin-3-yl-pyrimidin-2-yl)amino]-3-methoxy-phenyl]methyl]piperazin-1-yl]ethanol]",7.70
9,"COc1cc(N2CC[C@@H](N(C)C)C2)ccc1Nc1ncc(F)c(-c2cnc3ccccn23)n1 [Example 76, N-[4-[(3R)-3-dimethylaminopyrrolidin-1-yl]-2-methoxy-phenyl]-5-fluoro-4-imidazo[1,2-a]pyridin-3-yl-pyrimidin-2-amine]",7.48
10,"COc1ccc(N2CCN(C(N)=O)CC2)cc1Nc1ncc(Cl)c(-c2cnc3ccccn23)n1 [Example 55, 4-[3-[(5-chloro-4-imidazo[1,2-a]pyridin-3-yl-pyrimidin-2-yl)amino]-4-methoxy-phenyl]piperazine-1-carboxamide]",7.48
11,"COc1cc(N2CCN(C(=O)[C@@H]3CCCN3)CC2)ccc1Nc1ncc(Cl)c(-c2cnc3ccccn23)n1 [Example 23, [4-[4-[(5-chloro-4-imidazo[1,2-a]pyridin-3-yl-pyrimidin-2-yl)amino]-3-methoxy-phenyl]piperazin-1-yl]-[(2S)-pyrrolidin-2-yl]methanone]",8.05
12,"COc1cc(N2CCN(C(=O)N(C)CCO)CC2)ccc1Nc1ncc(Cl)c(-c2cnc3ccccn23)n1 [Example 47.1, 4-[4-[(5-chloro-4-imidazo[1,2-a]pyridin-3-yl-pyrimidin-2-yl)amino]-3-methoxy-phenyl]-N-(2-hydroxyethyl)-N-methyl-piperazine-1-carboxamide]",8.05
13,"COc1cc(N2CCN(C(C)=O)CC2)ccc1Nc1ncc(Cl)c(-c2cnc3ccc(Br)cn23)n1 [Example 126.1, 1-[4-[4-[[4-(6-bromoimidazo[1,2-a]pyridin-3-yl)-5-chloropyrimidin-2-yl]amino]-3-methoxyphenyl]piperazin-1-yl]ethanone]",8.05
